From article PMC4801149 (Drug Design, Development and Therapy, 2016)
Read-outs that look alike come from different tables or passages of the source.

How the values were obtained:
[1] = tested on: BGC823 xenograft
[2] = tested on: BGC823 cells; test: Apoptosis by flow cytometry; assay type: cell-based, Human; conditions: compared to control, dose- and time-dependent, P<0.05
[3] = tested on: BGC823 cells; test: Transwell cell migration assay; assay type: cell-based, Human; conditions: 24 hours, dose-dependent, P<0.05
[4] = cited from earlier work
[5] = tested on: BGC823 cells; test: Matrigel-coated transwell invasion assay; assay type: cell-based, Human; conditions: 24 hours, matrigel-coated transwells, dose-dependent, P<0.05
[6] = tested on: BGC823 cells; test: Cell cycle distribution by flow cytometry; assay type: cell-based, Human
[7] = molecular target: other CDKs; test: Kinase assay in vitro, other CDKs overall; assay type: biochemical; conditions: read-out: IC50 values for inhibition of other CDKs; CDKs other than CDK7
[8] = tested on: BGC823 cells; test: Western blot of apoptosis and cell cycle proteins; assay type: cell-based, Human; conditions: P<0.05
[9] = tested on: RNA polymerase II CTD serine 5 (P-Ser5), CDK7 phosphorylation site; test: Immunoblotting of RNA polymerase II CTD Ser5 phosphorylation; assay type: cell-based, Human; conditions: BGC823 whole cell lysates, 4 hours

Structure (SMILES)	mice died in additional 30-day survival observation ([1]; roscovitine 20 mg/kg/d for 14 days, five of ten) [%]	mice body weights, difference between groups ([1]; 14-day observation, 10 or 20 mg/kg/d ip)	mice died in additional 30-day survival observation ([1]; BS-181 10 mg/kg/d ip for 14 days, six of ten) [%]	mice died in additional 30-day survival observation ([1]; BS-181 20 mg/kg/d ip for 14 days, three of ten) [%]	toxicity ([1]; daily dose of 10 mg/kg or 20 mg/kg ip, 14 days)	tumor growth ([1]; ip twice daily, 10 or 20 mg/kg/d, 14 days, dose-dependent, compared to control, P<0.05)	apoptotic cells [2]	cell migration ability [3]	tolerability ([4]; dose of 10 mg/kg/d or 20 mg/kg/d, BALB/c-nu mice)	maximum tolerated single dose ([4]; given intraperitoneally) [mg/kg/day]	cell invasion ability [5]	cell population in S and G2/M phases [6]	cells in G0/G1 [6]	IC50 [7] [nM]	XIAP expression [8]	cyclin D1 expression [8]	Bax expression ([8]; compared to control)	Bcl-2 level ([8]; compared to control)	caspase-3 expression ([8]; compared to control)	phosphorylation of the RNA polymerase II CTD at serine 5 (P-Ser5) [9]
CC[C@H](CO)Nc1nc(NCc2ccccc2)c2ncn(C(C)C)c2n1 [Roscovitine, roscovitine]	50	–	–	–	–	–	–	–	–	–	–	–	–	–	–	–	–	–	–	–
CC(C)c1cnn2c(NCc3ccccc3)cc(NCCCCCCN)nc12 [BS-181]	–	no significant difference	60	30	no apparent toxicity	significantly inhibited	Significant increases	significantly inhibited	well-tolerated	30	significantly inhibited	reduction	increase	> 1000	significant reduction	significant reduction	significantly increased	reduced	significantly increased	inhibited
